The values that follow come from US7544714B2, “Lipid-amino acid conjugates and methods of use” (University of Massachusetts, priority 2004, dated 2009).

This experiment has as its system 3T3 L1 fibroblasts. Description: RT-PCR analysis of adipocyte specific transcripts as secondary test of adipocyte differentiation. The format is cell-based. The note with it: with 10 μg/ml insulin. The protocol: N-arachidonoyl-D-alanine is subjected to the Oil Red O assay, discussed in more detail supra. In the assay, 3T3 L1 fibroblasts are cultured in DMEM supplemented with 10% calf serum. Two days after confluence, cells are treated with 0.1% DMSO (vehicle), 20-100 μM N-arachidonoyl-D-alanine in vehicle, or 1 μM GW347845 (Cobb et al., J. Med. Chem., 41:5055-5069, 1998) in vehicle. Each of the three treatments is administered to the cells with 10 μg/ml of insulin. After seven days of treatment with GW347845 and 10-14 days of treatment with N-arachidonoyl-D-alanine, cells are fixed and stained with Oil Red O. Red staining indicates lipid droplets in the cytoplasm. RT-PCR analysis of expressed genes is performed as a secondary test of adipocyte differentiation. Messenger RNA from fibroblasts is harvested and RT-PCR is performed to amplify adipocyte specific transcripts, e.g., PPARγ2 and aP2, or the transcript of a ubiquitous housekeeping gene, e.g., GAPDH. PCR products are analyzed on 1% agarose gel and stained with ethidium bromide. […] Expression of the housekeeping gene GAPDH is assayed to ensure equal expression in all samples.

The mark [1] stands for this setting: 20-100 μM, 10-14 days of treatment.

For `CCCCC/C=C\C/C=C\C/C=C\C/C=C\CCCC(=O)N[C@H](C)C(=O)O` [N-arachidonoyl-D-alanine], under setting [1], the “PPARγ2 transcript induction relative to vehicle-treated cells (RT-PCR)” value was “induced significantly” and the “aP2 transcript induction relative to vehicle-treated cells (RT-PCR)” value is given as “induced significantly”.

Turning to `COC(=O)c1ccccc1N[C@@H](Cc1ccc(OCCc2nc(-c3ccccc3)oc2C)cc1)C(=O)O` [GW347845], where the note is “1 μM, seven days of treatment”, the “PPARγ2 transcript induction relative to vehicle-treated cells (RT-PCR)” value was “induced significantly” and the “aP2 transcript induction relative to vehicle-treated cells (RT-PCR)” value is recorded as “induced significantly”.
